Source: US20260109732A1, “LIPID AMINES” (ModernaTX, Inc., priority 2021, published 2026)
Structures can show the parent of a compound that is named as a salt.

Key:
HeLa cells [1] = assay: CFTR Protein Expression Assay in HeLa Cells; format: cell-based, Human; details: LNPs encapsulating CFTR mRNA, N=4 wells; 5 h serum-free then 24 h; immunofluorescence vs PBS control
Experimental: (§1) For HeLa studies evaluating CFTR protein expression, the intermediate nanoparticle formulation (1 mL, 0.415 mg mRNA) is mixed with a buffer containing 20 mM TRIS (pH 7.5), 0.9 mg/mL PEG-DMG-2K and lipid amine SA50 (647.1 nmol) at a volumetric ratio of 6:1 of nanoparticle:buffer. The resulting nanoparticle suspension undergoes concentration using a centrifugal filtration device (100 kDa molecular weight cut-off) and is diluted in running buffer (20 mM TRIS, 14.3 mM sodium acetate, and 32 g/L sucrose, pH 7.5) with a 300 mM NaCl solution to a final buffer matrix containing 70 mM NaCl.
(§2) Lipid nanoparticle compositions were prepared in a manner analogous to that in example 2. To evaluate LNP cellular uptake and protein expression In Vitro, HeLa cells from ATCC.org (ATCC CCL-2) are used. The cells are cultured in complete Minimum Essential Medium (MVEM) and are plated in 96 well Cell Carrier Ultra plate with PDL coated surface (PerkinElmer) prior to running an experiment.
Buffer control (PBS) and LNPs encapsulating cystic fibrosis transmembrane conductance regulator (CFTR) mRNA were dosed with MEM media in the absence of serum (N=4 replicate wells). LNP transfected cells were incubated for 5 h, followed by media removal and supplementation with complete MEM media. Cells were further incubated in complete MEM media overnight (24 h).
Following 24 hr incubation, the cells were fixed with PFA and processed for immunofluorescence (IF) using an anti-CFTR rabbit monoclonal antibody. Briefly, the cells were permeabilized with 0.5% TX-100 for 10 min, blocked with 3% bovine serum albumin (BSA)+PBST for 1 hr at room temperature, and incubated with primary anti-CFTR monoclonal antibody overnight at 4° C. Following primary antibody incubation, the cells were incubated with Alexa 488 conjugated secondary antibody for 30 mi and stained with DAPI and HCS CellMask Blue stain. Between different incubation steps the cells were either washed with PBS or PBST. Cells were imaged using Opera Phoenix spinning disk confocal microscope (PerkinElmer), and CFTR protein expression was detected using the 488 nm channel. The image analysis was performed in Harmony 4.9, with main analysis output being CFTR intensity per cell. The results shown in Table 3b show fold-change in CFTR signal intensity per cell compared to buffer (PBS) control (NA=not available).

[2] = Encapsulation of mRNA nanoparticles with lipid amines using Ribogreen assay; format: physicochemical
Experimental: (§3) Lipids are dissolved in ethanol at a concentration of 24 mg/mL and molar ratios of 49.0:11.2:39.3:0.5 (IL1:DSPC:cholesterol:PEG-DMG-2K) and mixed with the acidification buffer (45 mM acetate buffer at pH 4). The lipid solution and acidification buffer are mixed using a multi-inlet vortex mixer at a 3:7 volumetric ratio of lipid:buffer for mixer 1 and mixer 2 and a 1:3 volumetric ratio of lipid:buffer (25% ethanol) for mixer 3. After a 5 second residence time, the resulting nanoparticles are mixed with 55 mM sodium acetate at pH 5.6 at a volumetric ratio of 5:7 of nanoparticle:buffer. See Table 2a for mixing parameters. The resulting dilute nanoparticles are then buffer exchanged and concentrated using tangential flow filtration (TFF) into a final buffer containing 5 mM sodium acetate pH 5.0. Then a 70% sucrose solution in 5 mM acetate buffer at pH 5 is subsequently added.
(§4) The resulting nanoparticles at a lipid concentration of 7.33 mg/mL in 5 mM acetate (pH 5) and 75 g/L sucrose are mixed with mRNA (luciferease or CFTR) at a concentration of 0.625 mg/mL in 42.5 mM sodium acetate pH 5.0, with N:P of 4.93. The nanoparticle solution and nanoparticles are mixed using a multi-inlet vortex mixer at a 3:2 volumetric ratio of nanoparticle:mRNA. Once loaded with mRNA, these intermediate nanoparticles undergo a 300 second residence time prior addition of neutralization buffer containing 120 mM TRIS pH 8.12 at a volumetric ratio of 5:1 of nanoparticle:buffer.
(§5) For HeLa studies evaluating luciferase protein expression, PEG-DMG-2K dissolved in a 20 mM TRIS buffer (pH 7.5) is added to the neutralized intermediate nanoparticle solution at a ratio of 1:6, bringing the solution to the final molar ratios of IL1:DSPC:cholesterol:PEG-DMG-2K of 48.5:11.1:38.9:1.5%. This nanoparticle formulation is then modified with lipid amines. In a typical example, nanoparticle formulation at a concentration of 0.18 mg/mL mRNA and a 0.56 mL volume is modified with lipid amine SA50 (467.2 nmol) prepared in buffer containing 20 mM TRIS, 14.3 mM sodium acetate, 32 g/L sucrose and 140 mM NaCl-pH 7.5 at a volumetric ratio of 1:1 of nanoparticle:buffer.
as §1
(§6) Both resulting nanoparticle suspensions are filtered through a 0.8/0.2 μm capsule filter and filled into glass vials at an mRNA strength of about 0.1-1 mg/mLBliophysical data (Diameter and PDI from DLS measurements and Encapsualtion using Ribogreen assay) for both luciferase and CFTR mRNA nanoparticles with lipid amines is shown in Tables 2c and d, respectively.

[3] = Diameter and PDI from DLS measurements of mRNA nanoparticles with lipid amines; format: physicochemical
Experimental: as §3, §4, §5, §1, §6

HeLa cells [4] = assay: Luciferase Protein Expression Assay in HeLa Cells; format: cell-based, Human; details: LNPs encapsulating Luciferase mRNA, 25 ng per well, N=4 wells; 5 h serum-free then 24 h; ONE-Glo
Experimental: as §5, §2
Cells were transfected with buffer control (PBS) or LNPs encapsulating Luciferase mRNA (25 ng per well; N=4 replicate wells) in serum-free MEM media. LNP transfected cells were incubated for 5 h, followed by media removal and supplementation with complete MEM media. Cells were further incubated in complete MEM media overnight (24 h). Following the 24 hr incubation, luciferase protein expression was measured using the ONE-Glo™ Luciferase Assay (Promega). Cells were lysed using 1× Passive Lysis Buffer (Cat. #E194A) for 10 min in a microplate mixer at room temperature. Luciferase in the supernatant was measured by adding Luciferase Assay Reagent (Cat. #E151A) containing luciferin. Bioluminescence was then immediately measured on a Synergy H1 plate reader (BioTek). The results shown in Table 3a show the Average Relative Light Units (RLU) of each sample tested.

[5] = CFTR mRNA nanoparticle with lipid amine
[6] = Luciferase mRNA nanoparticle modified with lipid amine

With `CC(C)CCC[C@@H](C)[C@H]1CC[C@H]2[C@@H]3CC=C4C[C@@H](OC(=O)N(CCCN)CCCCOCCCN)CC[C@]4(C)[C@H]3CC[C@]12C` [SA61, (3S,8S,9S,10R,13R,14S,17R)-10,13-Dimethyl-17-((R)-6-methylheptan-2-yl)-2,3,4,7,8,9,10,11,12,13,14,15,16,17-tetradecahydro-1H-cyclopenta[a]phenanthren-3-yl (4-(3-aminopropoxy)butyl)(3-aminopropyl)carbamate dihydrochloride] the “Average fold-change in CFTR signal intensity per cell compared to buffer control ± standard deviation” value (HeLa cells [1]) was 7.2 ± 0.4 fold-change, the “% Encapsulation (Ribogreen)” value [2, 5] was 99.4% and the “% Encapsulation (Ribogreen)” value [2, 6] was 99.1%. For the same compound, the “Diameter (nm)” value [3, 5] was 71.3 nm, the PDI [3, 5] was 0.11 and the “Diameter (nm)” value [3, 6] was 77 nm. The PDI [3, 6] was 0.16 and the “Average Relative Light Units ± Standard Deviation” value (HeLa cells [4]) was 14343.1 ± 5298.1 Relative Light Units.

For `CC(C)CCC[C@@H](C)[C@H]1CC[C@H]2[C@@H]3CC=C4C[C@@H](OC(=O)C(C)C(=O)N(CCCN)CCCCNCCCN)CC[C@]4(C)[C@H]3CC[C@]12C.Cl.Cl.Cl` (stereo partly drawn) [SA62, (3S,8S,9S,10R,13R,14S,17R)-10,13-Dimethyl-17-((R)-6-methylheptan-2-yl)-2,3,4,7,8,9,10,11,12,13,14,15,16,17-tetradecahydro-1H-cyclopenta[a]phenanthren-3-yl 3-((3-aminopropyl)(4-((3-aminopropyl)amino)butyl)amino)-2-methyl-3-oxopropanoate trihydrochloride], the “Average fold-change in CFTR signal intensity per cell compared to buffer control ± standard deviation” value (HeLa cells [1]) was 5.5 ± 1.3 fold-change, the “% Encapsulation (Ribogreen)” value [2, 5] was 99.6% and the “% Encapsulation (Ribogreen)” value [2, 6] was 99.0%. The “Diameter (nm)” value [3, 5] was 74.2 nm, the PDI [3, 5] was 0.10 and the “Diameter (nm)” value [3, 6] was 78 nm. For the same compound, the PDI [3, 6] was 0.20 and the “Average Relative Light Units ± Standard Deviation” value (HeLa cells [4]) was 18807.1 ± 6618.4 Relative Light Units.

In the case of `CC(C)CCC[C@@H](C)[C@H]1CC[C@H]2[C@@H]3CC=C4C[C@@H](OC(=O)C(=O)N(CCCN)CCCCNCCCN)CC[C@]4(C)[C@H]3CC[C@]12C` [SA66, (3S,8S,9S,10R,13R,14S,17R)-10,13-Dimethyl-17-((R)-6-methylheptan-2-yl)-2,3,4,7,8,9,10,11,12,13,14,15,16,17-tetradecahydro-1H-cyclopenta[a]phenanthren-3-yl 2-((3-aminopropyl)(4-((3-aminopropyl)amino)butyl)amino)-2-oxoacetate trihydrochloride], the “Average fold-change in CFTR signal intensity per cell compared to buffer control ± standard deviation” value (HeLa cells [1]) is reported as 2.4 ± 0.1 fold-change, the “% Encapsulation (Ribogreen)” value [2, 5] is reported as 99.5% and the “% Encapsulation (Ribogreen)” value [2, 6] is reported as 88.2%. For the same compound, the “Diameter (nm)” value [3, 5] was 75.7 nm, the PDI [3, 5] was 0.13 and the “Diameter (nm)” value [3, 6] was 72 nm. For the same compound, the PDI [3, 6] was 0.18 and the “Average Relative Light Units ± Standard Deviation” value (HeLa cells [4]) was 13951.3 ± 6740.3 Relative Light Units.

In the case of `CC[C@H](CC[C@@H](C)[C@H]1CC[C@H]2[C@@H]3CC=C4C[C@@H](OC(=O)N(CCCN)CCCCCCCCN)CC[C@]4(C)[C@H]3CC[C@]12C)C(C)C` [SA69, (3S,8S,9S,10R,13R,14S,17R)-17-((2R,5R)-5-Ethyl-6-methylheptan-2-yl)-10,13-dimethyl-2,3,4,7,8,9,10,11,12,13,14,15,16,17-tetradecahydro-1H-cyclopenta[a]phenanthren-3-yl (8-aminooctyl)(3-aminopropyl)carbamate dihydrochloride], the “Average fold-change in CFTR signal intensity per cell compared to buffer control ± standard deviation” value (HeLa cells [1]) is reported as 5.3 ± 0.5 fold-change, the “% Encapsulation (Ribogreen)” value [2, 5] is reported as 99.9% and the “% Encapsulation (Ribogreen)” value [2, 6] is reported as 98.9%. For the same compound, the “Diameter (nm)” value [3, 5] was 74.0 nm, the PDI [3, 5] was 0.13 and the “Diameter (nm)” value [3, 6] was 71 nm. The PDI [3, 6] was 0.16 and the “Average Relative Light Units ± Standard Deviation” value (HeLa cells [4]) was 35256.9 ± 8309.9 Relative Light Units.

For `C/C(=C/CCC(C)C)[C@H]1CC[C@H]2[C@@H]3CC=C4C[C@@H](OC(=O)N(CCCN)CCCCNCCCN)CC[C@]4(C)[C@H]3CC[C@]12C` [SA70, (3S,8S,9S,10R,13R,14S,17R)-10,13-dimethyl-17-((R)-6-methylheptan-2-yl)-2,3,4,7,8,9,10,11,12,13,14,15,16,17-tetradecahydro-1H-cyclopenta[a]phenanthren-3-yl (3-aminopropyl)(4-((3-aminopropyl)amino)butyl)carbamate analog olefin elimination by-product from hydroxycholesterol], the “Average fold-change in CFTR signal intensity per cell compared to buffer control ± standard deviation” value (HeLa cells [1]) was 4.5 ± 0.8 fold-change, the “% Encapsulation (Ribogreen)” value [2, 5] was 99.8% and the “% Encapsulation (Ribogreen)” value [2, 6] was 97.9%. The “Diameter (nm)” value [3, 5] was 76.2 nm, the PDI [3, 5] was 0.16 and the “Diameter (nm)” value [3, 6] was 76 nm. For the same compound, the PDI [3, 6] was 0.21 and the “Average Relative Light Units ± Standard Deviation” value (HeLa cells [4]) was 11822.1 ± 4128.6 Relative Light Units.

In the case of `CC(C)CCC[C@@H](C)[C@H]1CC[C@H]2[C@@H]3CC=C4C[C@@H](OC(=O)CN(CCCN)CCCCCCCCN)CC[C@]4(C)[C@H]3CC[C@]12C` [SA71, (3S,8S,9S,10R,13R,14S,17R)-10,13-Dimethyl-17-((R)-6-methylheptan-2-yl)-2,3,4,7,8,9,10,11,12,13,14,15,16,17-tetradecahydro-1H-cyclopenta[a]phenanthren-3-yl N-(8-aminooctyl)-N-(3-aminopropyl)glycinate trihydrochloride], the “Average fold-change in CFTR signal intensity per cell compared to buffer control ± standard deviation” value (HeLa cells [1]) is reported as 6.0 ± 0.4 fold-change, the “% Encapsulation (Ribogreen)” value [2, 5] is reported as 99.8% and the “% Encapsulation (Ribogreen)” value [2, 6] is reported as 99.1%. The “Diameter (nm)” value [3, 5] was 74.3 nm, the PDI [3, 5] was 0.12 and the “Diameter (nm)” value [3, 6] was 73 nm. For the same compound, the PDI [3, 6] was 0.15 and the “Average Relative Light Units ± Standard Deviation” value (HeLa cells [4]) was 32758.9 ± 5897.1 Relative Light Units.
